Measurements published in US20240109864A1, “SUBSTITUTED PYRAZOLYL PIPERIDINE CARBOXYLIC ACIDS” (BAYER AKTIENGESELLSCHAFT, priority 2020, published 2024).
Structures can show the parent of a compound that is named as a salt.

Target: T1, recombinant guanylate cyclase reporter cell line (Rattus norvegicus, UniProt P20595)
T1 construct: expressed in transfected cells
T1 sequence (P20595 1-619): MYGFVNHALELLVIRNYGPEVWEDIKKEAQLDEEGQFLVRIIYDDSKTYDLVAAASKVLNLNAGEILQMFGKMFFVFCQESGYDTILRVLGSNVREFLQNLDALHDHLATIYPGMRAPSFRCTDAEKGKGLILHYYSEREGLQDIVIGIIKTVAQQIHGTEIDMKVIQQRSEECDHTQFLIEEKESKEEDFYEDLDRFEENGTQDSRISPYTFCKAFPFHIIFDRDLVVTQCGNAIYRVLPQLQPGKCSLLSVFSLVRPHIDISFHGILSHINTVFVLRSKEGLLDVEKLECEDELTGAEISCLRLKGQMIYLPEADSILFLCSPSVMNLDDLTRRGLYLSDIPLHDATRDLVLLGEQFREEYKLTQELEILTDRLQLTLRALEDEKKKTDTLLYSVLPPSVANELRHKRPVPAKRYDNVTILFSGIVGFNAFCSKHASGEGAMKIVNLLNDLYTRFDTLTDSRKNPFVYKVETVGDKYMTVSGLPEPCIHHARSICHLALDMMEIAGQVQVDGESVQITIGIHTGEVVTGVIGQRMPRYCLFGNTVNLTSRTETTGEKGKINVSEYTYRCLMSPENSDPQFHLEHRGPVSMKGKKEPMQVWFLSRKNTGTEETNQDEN
T1 sequence (P19686 1-690 partner): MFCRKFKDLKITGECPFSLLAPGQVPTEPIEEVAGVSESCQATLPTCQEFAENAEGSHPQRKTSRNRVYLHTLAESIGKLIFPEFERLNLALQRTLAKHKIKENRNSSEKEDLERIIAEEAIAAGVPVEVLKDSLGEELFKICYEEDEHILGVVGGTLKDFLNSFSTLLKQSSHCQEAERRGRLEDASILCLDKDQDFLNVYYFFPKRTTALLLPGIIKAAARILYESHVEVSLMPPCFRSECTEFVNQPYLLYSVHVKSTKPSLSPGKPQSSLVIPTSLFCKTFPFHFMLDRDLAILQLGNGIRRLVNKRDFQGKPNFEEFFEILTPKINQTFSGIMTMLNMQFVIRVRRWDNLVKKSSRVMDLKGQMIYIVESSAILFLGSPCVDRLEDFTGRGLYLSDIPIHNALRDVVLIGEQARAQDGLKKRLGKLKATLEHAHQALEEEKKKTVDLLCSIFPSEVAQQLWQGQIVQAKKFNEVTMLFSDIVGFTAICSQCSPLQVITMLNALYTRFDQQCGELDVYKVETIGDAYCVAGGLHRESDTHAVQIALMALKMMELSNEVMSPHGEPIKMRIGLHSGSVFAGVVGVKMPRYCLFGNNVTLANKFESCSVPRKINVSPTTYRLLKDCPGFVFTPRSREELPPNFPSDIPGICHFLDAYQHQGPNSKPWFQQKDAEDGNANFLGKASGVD
Assay: Effect on a recombinant guanylate cyclase reporter cell line
Assay type: cell-based
Settings: in some cases mean values from individual determinations; for MEC: MEC = minimum effective concentration; for EC50: half maximal effective concentration
Method: The cellular activity of the compounds according to the invention was determined using a recombinant guanylate cyclase reporter cell line, as described in F. Wunder et al., Anal. Biochem. 339, 104-112 (2005).

Row | SMILES | MEC [nM] | EC50 [µM] | MEC (hydrochloride) [nM]
1 | O=C(O)c1cnn(C2CCCN(c3cc(Cl)ccc3-c3ccc(N4CCN(C(=O)[C@H]5C[C@H]5F)CC4)cc3)C2)c1C(F)(F)F (single isomer, unassigned) [Example 45, hydrochloride] | 3.0 | 0.014 | 
2 | CCN1CCN(c2ccc(-c3ccc(Cl)cc3N3CCCC(n4ncc(C(=O)O)c4C(F)(F)F)C3)c(F)c2)CC1 (single isomer, unassigned) [Example 68, 1-[1-[5-Chloro-2-[4-(4-ethylpiperazin-1-yl)-2-fluoro-phenyl]phenyl]-3-piperidyl]-5-(trifluoromethyl)pyrazole-4-carboxylic acid hydrochloride] | 3.0 | 0.0365 | 
3 | CCCOC(=O)N1CCN(c2ccc(-c3ccc(Cl)cc3N3CCCC(n4ncc(C(=O)O)c4C(F)(F)F)C3)cc2)CC1 (single isomer, unassigned) [Example 58, 1-[1-[5-Chloro-2-[4-(4-propoxycarbonylpiperazin-1-yl)phenyl]phenyl]-3-piperidyl]-5-(trifluoromethyl)pyrazole-4-carboxylic acid] | 10.0 | 0.0425 | 
4 | O=C(O)c1cnn(C2CCCN(c3cc(Cl)ccc3-c3ccc(N4CCN(CC(F)(F)F)CC4)cc3)C2)c1C(F)(F)F (single isomer, unassigned) [Example 16, 1-[1-[5-Chloro-2-[4-[4-(2,2,2-trifluoroethyl)piperazin-1-yl]phenyl]phenyl]-3-piperidyl]-5-(trifluoromethyl)pyrazole-4-carboxylic acid] | 3.0 | 0.0144 | 
5 | O=C(O)c1cnn(C2CCCN(c3cc(Cl)ccc3-c3ccc(N4CCN(CCC(F)F)CC4)cc3)C2)c1C(F)(F)F (single isomer, unassigned) [Example 14, 1-[1-[5-Chloro-2-[4-[4-(3,3-difluoropropyl)piperazin-1-yl]phenyl]phenyl]-3-piperidyl]-5-(trifluoromethyl)pyrazole-4-carboxylic acid hydrochloride] | 0.3 | 0.0031 | 
6 | COCCOC(=O)N1CCN(c2ccc(-c3ccc(Cl)cc3N3CCCC(n4ncc(C(=O)O)c4C(F)(F)F)C3)cc2)CC1 (single isomer, unassigned) [Example 62, 1-[1-[5-Chloro-2-[4-[4-(2-methoxyethoxycarbonyl)piperazin-1-yl]phenyl]phenyl]-3-piperidyl]-5-(trifluoromethyl)pyrazole-4-carboxylic acid] | 10.0 | 0.0575 | 
7 | O=C(O)c1cnn(C2CCCN(c3cc(Cl)ccc3-c3ccc(N4CCN(CC5CC(F)C5)CC4)cc3)C2)c1C(F)(F)F (single isomer, unassigned) [Example 22, 1-[1-[5-Chloro-2-[4-[4-[(3-fluorocyclobutyl)methyl]piperazin-1-yl]phenyl]phenyl]-3-piperidyl]-5-(trifluoromethyl)pyrazole-4-carboxylic acid hydrochloride] | 2.0 | 0.0114 | 
8 | CC(=O)N1CCN(c2ccc(-c3ccc(Cl)cc3N3CCCC(n4ncc(C(=O)O)c4C(F)(F)F)C3)cc2)CC1 (single isomer, unassigned) [Example 36, 1-[1-[2-[4-(4-Acetylpiperazin-1-yl)phenyl]-5-chloro-phenyl]-3-piperidyl]-5-(trifluoromethyl)pyrazole-4-carboxylic acid] | 10.0 | 0.0355 | 
9 | O=C(O)c1cnn(C2CCCN(c3cc(Cl)ccc3-c3ccc(N4CCN(C[C@@H]5C[C@@H]5F)CC4)cc3)C2)c1C(F)(F)F (single isomer, unassigned) [Example 8, hydrochloride] |  | 0.053 | 10.0
10 | CC(C)(F)CN1CCN(c2ccc(-c3ccc(Cl)cc3N3CCCC(n4ncc(C(=O)O)c4C(F)(F)F)C3)cc2)CC1.Cl (single isomer, unassigned) [Example 10, 1-[1-[5-Chloro-2-[4-[4-(2-fluoro-2-methyl-propyl)piperazin-1-yl]phenyl]phenyl]-3-piperidyl]-5-(trifluoromethyl)pyrazole-4-carboxylic acid hydrochloride] | 3.0 | 0.0245 | 
11 | O=C(O)c1cnn(C2CCCN(c3cc(Cl)ccc3-c3ccc(N4CCN(C(=O)C5CC5)CC4)cc3)C2)c1C(F)(F)F (single isomer, unassigned) [Example 42, 1-[1-[5-Chloro-2-[4-[4-(cyclopropanecarbonyl)piperazin-1-yl]phenyl]phenyl]-3-piperidyl]-5-(trifluoromethyl)pyrazole-4-carboxylic acid] | 1.0 | 0.0042 | 
12 | O=C(O)c1cnn(C2CCCN(c3cc(Cl)ccc3-c3ccc(N4CCN(C(=O)C5CCC5)CC4)cc3)C2)c1C(F)(F)F (single isomer, unassigned) [Example 49, 1-[1-[5-Chloro-2-[4-[4-(cyclobutanecarbonyl)piperazin-1-yl]phenyl]phenyl]-3-piperidyl]-5-(trifluoromethyl)pyrazole-4-carboxylic acid hydrochloride] | 1.0 | 0.0035 | 
13 | O=C(O)c1cnn(C2CCCN(c3cc(Cl)ccc3-c3ccc(N4CCN(CC5C[C@@H]5F)CC4)cc3)C2)c1C(F)(F)F (single isomer, unassigned) [Example 27, 1-[1-[5-Chloro-2-[4-[4-[[2-fluorocyclopropyl]methyl]piperazin-1-yl]phenyl]phenyl]-3-piperidyl]-5-(trifluoromethyl)pyrazole-4-carboxylic acid hydrochloride] | 3.0 | 0.015 | 
14 | CS(=O)(=O)N1CCN(c2ccc(-c3ccc(Cl)cc3N3CCCC(n4ncc(C(=O)O)c4C(F)(F)F)C3)cc2)CC1 (single isomer, unassigned) [Example 67, 1-[1-[5-Chloro-2-[4-(4-methylsulfonylpiperazin-1-yl)phenyl]phenyl]-3-piperidyl]-5-(trifluoromethyl)pyrazole-4-carboxylic acid hydrochloride] | 30.0 | 0.045 | 
15 | O=C(O)c1cnn(C2CCCN(c3cc(Cl)ccc3-c3ccc(N4CCN(CC(F)F)CC4)cc3)C2)c1C(F)(F)F (single isomer, unassigned) [Example 13, 1-[1-[5-Chloro-2-[4-[4-(2,2-difluoroethyl)piperazin-1-yl]phenyl]phenyl]-3-piperidyl]-5-(trifluoromethyl)pyrazole-4-carboxylic acid] | 3.0 | 0.054 | 
16 | O=C(O)c1cnn(C2CCCN(c3cc(Cl)ccc3-c3ccc(N4CCN(CC5CC5C(F)(F)F)CC4)cc3)C2)c1C(F)(F)F (single isomer, unassigned) [Example 32, 1-[1-[5-Chloro-2-[4-[4-[[2-(trifluoromethyl)cyclopropyl]methyl]piperazin-1-yl]phenyl]phenyl]-3-piperidyl]-5-(trifluoromethyl)pyrazole-4-carboxylic acid hydrochloride] |  | 0.0093 | 3.0
17 | CN1CCN(c2ccc(-c3ccc(Cl)cc3N3CCCC(n4ncc(C(=O)O)c4C(F)(F)F)C3)c(Cl)c2)CC1 (single isomer, unassigned) [Example 72, 1-[1-[5-Chloro-2-[2-chloro-4-(4-methylpiperazin-1-yl)phenyl]phenyl]-3-piperidyl]-5-(trifluoromethyl)pyrazole-4-carboxylic acid formic acid adduct] | 10.0 | 0.0645 | 
18 | CCCC(=O)N1CCN(c2ccc(-c3ccc(Cl)cc3N3CCCC(n4ncc(C(=O)O)c4C(F)(F)F)C3)cc2)CC1 (single isomer, unassigned) [Example 40, 1-[1-[2-[4-(4-Butanoylpiperazin-1-yl)phenyl]-5-chloro-phenyl]-3-piperidyl]-5-(trifluoromethyl)pyrazole-4-carboxylic acid] | 3.0 | 0.019 | 
19 | CCOC(=O)N1CCN(c2ccc(-c3ccc(Cl)cc3N3CCCC(n4ncc(C(=O)O)c4C(F)(F)F)C3)cc2)CC1 (single isomer, unassigned) [Example 55, 1-[1-[5-Chloro-2-[4-(4-ethoxycarbonylpiperazin-1-yl)phenyl]phenyl]-3-piperidyl]-5-(trifluoromethyl)pyrazole-4-carboxylic acid] | 3.0 | 0.0104 | 
